Assays:
Assay type in all cases: physicochemical
[1] = Cocrystal screening by heat melting 1-menthol (Example 1), powder X-ray diffraction and thermal analysis; parameters: key to Cocrystal formation, Example 1: A cocrystal was completely formed.; B: A mixture of a cocrystal and the host compound or guest compound was formed.; C: A cocrystal was not formed (a mixture of the host compound and the guest compound was formed); settings: host theophylline; for Cocrystal formation, Example 1: equimolar guest, 1-menthol added, 4 hours at 80° C.
Experimental: Theophylline and a guest compound shown in Table 1 in an equimolar amount to theophylline were weighed and mixed using an agate mortar. […] Thereafter, the obtained mixed powder of theophylline, the guest compound, and 1-menthol was heated for 4 hours in an oven at 80° C., and the obtained solid was subjected to powder X-ray diffraction measurement and thermal analysis.

[2] = Cocrystal screening by co-grinding method (Comparative Example 2); parameters: key: A cocrystal was completely formed.; B: A mixture of a cocrystal and the host compound or guest compound was formed.; C: A cocrystal was not formed (a mixture of the host compound and the guest compound was formed); settings: host theophylline, equimolar guest, mixed/ground in agate mortar
Experimental: (§1) 3 mg (0.0167 mmoles) of theophylline and a guest compound shown in Table 1 in an equimolar amount (0.0167 mmoles) to theophylline were weighed and mixed using an agate mortar. At that time, particles having a large size to an extent that they could be distinguished through visual inspection were grinded on the agate mortar. The obtained solids were subjected to powder X-ray diffraction measurement and thermal analysis.

[3] = Cocrystal screening by slurry method (Comparative Examples 4-1 to 4-6), powder X-ray diffraction; parameters: key: A cocrystal was completely formed.; B: A mixture of a cocrystal and the host compound or guest compound was formed.; C: A cocrystal was not formed (a mixture of the host compound and the guest compound was formed); settings: host carbamazepine; for Cocrystal formation, Comparative Example 4-6: slurry in acetone; for Cocrystal formation, Comparative Example 4-2: slurry in ethanol; for Cocrystal formation, Comparative Example 4-5: slurry in ethyl acetate; for Cocrystal formation, Comparative Example 4-4: slurry in toluene; for Cocrystal formation, Comparative Example 4-1: slurry in water; for Cocrystal formation, Comparative Example 4*: slurry summary: A if a cocrystal was formed in any one of Comparative Examples 4-1 to 4-6
Experimental: 3 mg (0.0127 mmoles) of carbamazepine and a guest compound shown in Table 4 in an equimolar amount (0.0127 mmoles) to carbamazepine were weighed and put into a glass container, to which was then added 60 μL of water. These were shaken at room temperature for 7 days, and the obtained residues were subjected to powder X-ray diffraction measurement. 3 mg (0.0127 mmoles) of carbamazepine and a guest compound shown in Table 4 in an equimolar amount (0.0127 mmoles) to carbamazepine were weighed and put into a glass container, to which was then added 60 μL of ethanol. These were shaken at room temperature for 7 days, and the obtained residues were subjected to powder X-ray diffraction measurement. 3 mg (0.0127 mmoles) of carbamazepine and a guest compound shown in Table 4 in an equimolar amount (0.0127 mmoles) to carbamazepine were weighed and put into a glass container, to which was then added 60 μL of tetrahydrofuran. These were shaken at room temperature for 7 days, and the obtained residues were subjected to powder X-ray diffraction measurement. 3 mg (0.0127 mmoles) of carbamazepine and a guest compound shown in Table 4 in an equimolar amount (0.0127 mmoles) to carbamazepine were weighed and put into a glass container, to which was then added 60 μL of toluene. These were shaken at room temperature for 7 days, and the obtained residues were subjected to powder X-ray diffraction measurement. 3 mg (0.0127 mmoles) of carbamazepine and a guest compound shown in Table 4 in an equimolar amount (0.0127 mmoles) to carbamazepine were weighed and put into a glass container, to which was then added 60 μL of ethyl acetate. These were shaken at room temperature for 7 days, and the obtained residues were subjected to powder X-ray diffraction measurement. 3 mg (0.0127 mmoles) of carbamazepine and a guest compound shown in Table 4 in an equimolar amount (0.0127 mmoles) to carbamazepine were weighed and put into a glass container, to which was then added 60 μL of acetone. These were shaken at room temperature for 7 days, and the obtained residues were subjected to powder X-ray diffraction measurement.

[4] = Cocrystal screening by mixing and grinding method (Comparative Example 5); parameters: key: A cocrystal was completely formed.; B: A mixture of a cocrystal and the host compound or guest compound was formed.; C: A cocrystal was not formed (a mixture of the host compound and the guest compound was formed); settings: host carbamazepine, equimolar guest, mixed/ground in agate mortar
From the text: as §1, with “Carbamazepine” for “3 mg (0.0167 mmoles) of theophylline”, “4” for “1”, “amount” for “amount (0.0167 mmoles)”, “carbamazepine” for “theophylline”

[5] = Cocrystal screening by slurry method (Comparative Examples 1-1 to 1-6), powder X-ray diffraction; parameters: key to Cocrystal formation, Comparative Example 1* / Cocrystal formation, Comparative Example 1-1 / Cocrystal formation, Comparative Example 1-2 / Cocrystal formation, Comparative Example 1-3 / Cocrystal formation, Comparative Example 1-4 / Cocrystal formation, Comparative Example 1-5 / Cocrystal formation, Comparative Example 1-6: A cocrystal was completely formed.; B: A mixture of a cocrystal and the host compound or guest compound was formed.; C: A cocrystal was not formed (a mixture of the host compound and the guest compound was formed); settings: host theophylline; for Cocrystal formation, Comparative Example 1-6: slurry in acetone; for Cocrystal formation, Comparative Example 1-6 / Cocrystal formation, Comparative Example 1-2 / Cocrystal formation, Comparative Example 1-5 / Cocrystal formation, Comparative Example 1-3 / Cocrystal formation, Comparative Example 1-4 / Cocrystal formation, Comparative Example 1-1: room temperature 7 days; for Cocrystal formation, Comparative Example 1-2: slurry in ethanol; for Cocrystal formation, Comparative Example 1-5: slurry in ethyl acetate; for Cocrystal formation, Comparative Example 1-3: slurry in tetrahydrofuran; for Cocrystal formation, Comparative Example 1-4: slurry in toluene; for Cocrystal formation, Comparative Example 1*: slurry summary: A if a cocrystal was formed in any one of Comparative Examples 1-1 to 1-6
Experimental: 3 mg (0.0167 mmoles) of theophylline and a guest compound shown in Table 1 in an equimolar amount (0.0167 mmoles) to theophylline were weighed and put into a glass container, to which was then added 60 μL of water. These were shaken at room temperature for 7 days, and the obtained residues were subjected to powder X-ray diffraction measurement. 3 mg (0.0167 mmoles) of theophylline and a guest compound shown in Table I in an equimolar amount (0.0167 mmoles) to theophylline were weighed and put into a glass container, to which was then added 60 μL of ethanol. These were shaken at room temperature for 7 days, and the obtained residues were subjected to powder X-ray diffraction measurement. 3 mg (0.0167 mmoles) of theophylline and a guest compound shown in Table 1 in an equimolar amount (0.0167 mmoles) to theophylline were weighed and put into a glass container, to which was then added 60 μL of tetrahydrofuran. This was shaken at room temperature for 7 days, and the obtained residues were subjected to powder X-ray diffraction measurement. 3 mg (0.0167 mmoles) of theophylline and a guest compound shown in Table 1 in an equimolar amount (0.0167 mmoles) to theophylline were weighed and put into a glass container, to which was then added 60 μL of toluene. These were shaken at room temperature for 7 days, and the obtained residues were subjected to powder X-ray diffraction measurement. 3 mg (0.0167 mmoles) of theophylline and a guest compound shown in Table 1 in an equimolar amount (0.0167 mmoles) to theophylline were weighed and put into a glass container, to which was then added 60 μL of ethyl acetate. These were shaken at room temperature for 7 days, and the obtained residues were subjected to powder X-ray diffraction measurement. 3 mg (0.0167 mmoles) of theophylline and a guest compound shown in Table 1 in an equimolar amount (0.0167 mmoles) to theophylline were weighed and put into a glass container, to which was then added 60 μL of acetone. These were shaken at room temperature for 7 days, and the obtained residues were subjected to powder X-ray diffraction measurement.

Row | Cocrystal formation, Example 1 [1] | Cocrystal formation, Comparative Example 2 [2] | Cocrystal formation, Comparative Example 4-6 ([3]; room temperature 7 days) | Cocrystal formation, Comparative Example 4-2 ([3]; room temperature 7 days) | Cocrystal formation, Comparative Example 4-4 ([3]; room temperature 7 days) | Cocrystal formation, Comparative Example 4-1 ([3]; room temperature 7 days) | Cocrystal formation, Comparative Example 4* [3] | Cocrystal formation, Comparative Example 5 [4] | Cocrystal formation, Comparative Example 1-6 [5] | Cocrystal formation, Comparative Example 1-2 [5] | Cocrystal formation, Comparative Example 1-5 [5] | Cocrystal formation, Comparative Example 1-3 [5] | Cocrystal formation, Comparative Example 1-4 [5] | Cocrystal formation, Comparative Example 1-1 ([5]; slurry in water) | Cocrystal formation, Comparative Example 1* [5] | Cocrystal formation, Comparative Example 4-3 ([3]; slurry in tetrahydrofuran, room temperature 7 days) | Compound | Cocrystal formation, Comparative Example 4-5 ([3]; room temperature 7 days) | Cocrystal with theophylline found, Example 1 ([1]; 1-menthol, 80° C.) | Cocrystal with theophylline found, Comparative Example 1-1 ([5]; slurry in water)
1 | C | C | C | C | C | C | C | C | C | C | C | C | C | C | C | – | CC(C)C[C@H](N)C(=O)O [L-Leucine] | C | – | –
2 | A | C | B | A | A | C | A | C | C | A | A | C | C | C | A | – | O=C1NS(=O)(=O)c2ccccc21 [Saccharin] | A | – | –
3 | A | C | B | A | A | C | A | C | A | B | A | B | A | C | A | A | NC(=O)c1cccnc1 [Nicotinamide] | A | – | –
4 | A | C | C | C | C | C | C | C | C | C | A | C | C | C | A | – | O=C(O)CC(O)(CC(=O)O)C(=O)O [Citric acid] | – | – | –

Row | Compound | Cocrystal formation, Example 1 [1] | Cocrystal formation, Comparative Example 2 [2] | Cocrystal formation, Comparative Example 4-6 ([3]; room temperature 7 days) | Cocrystal formation, Comparative Example 4-2 ([3]; room temperature 7 days) | Cocrystal formation, Comparative Example 4-4 ([3]; room temperature 7 days) | Cocrystal formation, Comparative Example 4-1 ([3]; room temperature 7 days) | Cocrystal formation, Comparative Example 4* [3] | Cocrystal formation, Comparative Example 5 [4] | Cocrystal formation, Comparative Example 1-6 [5] | Cocrystal formation, Comparative Example 1-2 [5] | Cocrystal formation, Comparative Example 1-5 [5] | Cocrystal formation, Comparative Example 1-3 [5] | Cocrystal formation, Comparative Example 1-4 [5] | Cocrystal formation, Comparative Example 1-1 ([5]; slurry in water) | Cocrystal formation, Comparative Example 1* [5] | Cocrystal formation, Comparative Example 4-3 ([3]; slurry in tetrahydrofuran, room temperature 7 days) | Cocrystal formation, Comparative Example 4-5 ([3]; room temperature 7 days) | Cocrystal with theophylline found, Example 1 ([1]; 1-menthol, 80° C.) | Cocrystal with theophylline found, Comparative Example 1-1 ([5]; slurry in water)
5 | O=C(O)c1ccccc1 [Benzoic acid] | A | C | C | C | C | C | C | C | C | C | C | C | C | C | C | – | C | – | –
6 | N=C(N)NCCC[C@H](N)C(=O)O [L(+)-Arginine] | C | C | C | C | C | C | C | C | C | C | C | C | C | A | A | – | C | could not be found out | could be found out
7 | O=C(O)CCCC(=O)O [Glutaric acid] | A | C | C | C | C | C | C | C | C | C | C | C | C | C | C | – | C | – | –
